# Source: patent publication US20210196817A1, “Compositions and Methods for Selectively Modulating Tregs” (Augusta University Research Institute, Inc., priority 2014, published 2021)
# Experiments:
# Tconvs (CD4+Foxp3-) [1] = assay: pAkt (S473) phosphorylation by flow cytometry in activated Tconvs; assay type: cell-based, mouse; conditions: 10 nM, 100 nM and 1 μM, 72 hrs, anti-CD3/anti-CD28/IL-2 activated
# Procedure: (§1) Negative selection of CD4 T-cells from splenocytes was performed using magnetic bead separation technique according to the manufacturer's recommendations R&D Systems (Minneapolis, Minn.). Tregs (CD4+Foxp3+) and Tconvs (CD4+Foxp3-) were sorted from enriched CD4 cells using FACS ARIA II cell sorter (BD Biosciences).
# (§2) Sorted Tregs and Tconvs were labeled with VCT according to the manufacturer's protocol (Life Technologies, NY). Cells stimulated with and without inhibitors in the presence of 10 μg/mL plate-bound anti-CD3, 2.5 μg/mL soluble anti-CD28, and 100 IU/mL IL-2. After 3 days, cells were stained with live/dead cell stain (Life Technologies, NY), fixed, permeabelized and stained with anti-CD4-FITC and anti-Foxp3-AlexaFluor 647. For pAkt (S473) and pS6 analysis, the signal was amplified by using a biotin-conjugated donkey anti-rabbit antibody (BD Biosciences) and Streptavidin-PE. After staining, cells were acquired on LSRII SORP flow cytometer and analyzed using FlowJo software (Tree Star).
# (§3) The phosphorylation status of Akt (S473) in activated Tregs and Tconvs was measured by flow cytometry after treatment with titrated concentrations of the individual inhibitors. The concentrations choice was based on previously published IC50 of the inhibitors (Table 1) and the in-vitro viability of T-cells. Concentrations that maintain more than 70% viability of the T-cells were used.
# Tregs (CD4+Foxp3+) [2] = assay: pAkt (S473) phosphorylation by flow cytometry in activated Tregs; assay type: cell-based, mouse; conditions: 10 nM, 100 nM and 1 μM, 72 hrs, anti-CD3/anti-CD28/IL-2 activated
# Procedure: as §1, §2, §3
# Tregs (CD4+Foxp3+) [3] = assay: Violet Cell Trace proliferation assay, Tregs; assay type: cell-based, mouse; conditions: all tested concentrations, 3 days, anti-CD3/anti-CD28/IL-2
# Procedure: (§4) Sorted Tregs and Tconvs were labeled with VCT according to the manufacturer's protocol (Life Technologies, NY). Cells stimulated with and without inhibitors in the presence of 10 μg/mL plate-bound anti-CD3, 2.5 μg/mL soluble anti-CD28, and 100 IU/mL IL-2. After 3 days, cells were stained with live/dead cell stain (Life Technologies, NY), fixed, permeabelized and stained with anti-CD4-FITC and anti-Foxp3-AlexaFluor 647. […] After staining, cells were acquired on LSRII SORP flow cytometer and analyzed using FlowJo software (Tree Star).
# PI3Kα = PI3Kα (Homo sapiens, UniProt P42336); conditions: previously published IC50; cited from earlier work
# PI3Kγ = PI3Kγ (Homo sapiens, UniProt P48736); conditions: previously published IC50; cited from earlier work
# PI3Kδ = PI3Kδ (Homo sapiens, UniProt O00329); conditions: previously published IC50; cited from earlier work
# Tconvs (CD4+Foxp3-) [4] = assay: Violet Cell Trace proliferation assay, Tconvs; assay type: cell-based, mouse; conditions: all tested concentrations, 3 days, anti-CD3/anti-CD28/IL-2
# Procedure: as §4
# Tregs (CD4+Foxp3+) [5] = assay: Continuous inhibition of PI3Kδ in vivo: Tregs, CD4 and CD8 cells, incl. tumor infiltration
# Sequence of PI3Kγ (P48736 whole entry, species assumed): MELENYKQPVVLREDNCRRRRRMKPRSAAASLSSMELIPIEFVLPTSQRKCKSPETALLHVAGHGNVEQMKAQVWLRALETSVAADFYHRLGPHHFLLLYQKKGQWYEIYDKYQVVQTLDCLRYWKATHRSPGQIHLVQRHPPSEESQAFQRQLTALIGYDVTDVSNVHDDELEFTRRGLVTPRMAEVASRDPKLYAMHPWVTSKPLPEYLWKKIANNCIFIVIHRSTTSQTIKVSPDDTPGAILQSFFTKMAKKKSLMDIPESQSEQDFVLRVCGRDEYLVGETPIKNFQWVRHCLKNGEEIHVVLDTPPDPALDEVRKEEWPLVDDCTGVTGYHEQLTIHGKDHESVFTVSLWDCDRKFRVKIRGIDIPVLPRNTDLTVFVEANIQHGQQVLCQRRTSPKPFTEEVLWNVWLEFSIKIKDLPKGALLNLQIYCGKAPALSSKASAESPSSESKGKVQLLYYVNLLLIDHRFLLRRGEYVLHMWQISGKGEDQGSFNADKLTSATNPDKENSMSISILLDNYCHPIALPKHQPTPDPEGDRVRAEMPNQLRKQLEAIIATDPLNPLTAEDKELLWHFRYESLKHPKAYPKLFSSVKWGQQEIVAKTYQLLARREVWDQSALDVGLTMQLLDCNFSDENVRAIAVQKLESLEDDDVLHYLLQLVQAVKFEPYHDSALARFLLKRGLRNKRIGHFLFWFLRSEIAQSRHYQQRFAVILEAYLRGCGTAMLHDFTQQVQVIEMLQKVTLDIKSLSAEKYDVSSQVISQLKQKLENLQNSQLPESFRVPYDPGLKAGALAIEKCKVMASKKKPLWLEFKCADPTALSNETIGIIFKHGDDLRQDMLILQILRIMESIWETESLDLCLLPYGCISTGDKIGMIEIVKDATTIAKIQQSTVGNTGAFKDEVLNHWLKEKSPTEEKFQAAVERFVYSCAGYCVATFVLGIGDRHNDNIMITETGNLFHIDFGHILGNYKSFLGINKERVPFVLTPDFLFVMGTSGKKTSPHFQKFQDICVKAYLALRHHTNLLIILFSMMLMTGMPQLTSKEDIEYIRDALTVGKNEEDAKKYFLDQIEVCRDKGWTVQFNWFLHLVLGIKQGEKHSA
# Sequence of PI3Kα (P42336 whole entry, species assumed): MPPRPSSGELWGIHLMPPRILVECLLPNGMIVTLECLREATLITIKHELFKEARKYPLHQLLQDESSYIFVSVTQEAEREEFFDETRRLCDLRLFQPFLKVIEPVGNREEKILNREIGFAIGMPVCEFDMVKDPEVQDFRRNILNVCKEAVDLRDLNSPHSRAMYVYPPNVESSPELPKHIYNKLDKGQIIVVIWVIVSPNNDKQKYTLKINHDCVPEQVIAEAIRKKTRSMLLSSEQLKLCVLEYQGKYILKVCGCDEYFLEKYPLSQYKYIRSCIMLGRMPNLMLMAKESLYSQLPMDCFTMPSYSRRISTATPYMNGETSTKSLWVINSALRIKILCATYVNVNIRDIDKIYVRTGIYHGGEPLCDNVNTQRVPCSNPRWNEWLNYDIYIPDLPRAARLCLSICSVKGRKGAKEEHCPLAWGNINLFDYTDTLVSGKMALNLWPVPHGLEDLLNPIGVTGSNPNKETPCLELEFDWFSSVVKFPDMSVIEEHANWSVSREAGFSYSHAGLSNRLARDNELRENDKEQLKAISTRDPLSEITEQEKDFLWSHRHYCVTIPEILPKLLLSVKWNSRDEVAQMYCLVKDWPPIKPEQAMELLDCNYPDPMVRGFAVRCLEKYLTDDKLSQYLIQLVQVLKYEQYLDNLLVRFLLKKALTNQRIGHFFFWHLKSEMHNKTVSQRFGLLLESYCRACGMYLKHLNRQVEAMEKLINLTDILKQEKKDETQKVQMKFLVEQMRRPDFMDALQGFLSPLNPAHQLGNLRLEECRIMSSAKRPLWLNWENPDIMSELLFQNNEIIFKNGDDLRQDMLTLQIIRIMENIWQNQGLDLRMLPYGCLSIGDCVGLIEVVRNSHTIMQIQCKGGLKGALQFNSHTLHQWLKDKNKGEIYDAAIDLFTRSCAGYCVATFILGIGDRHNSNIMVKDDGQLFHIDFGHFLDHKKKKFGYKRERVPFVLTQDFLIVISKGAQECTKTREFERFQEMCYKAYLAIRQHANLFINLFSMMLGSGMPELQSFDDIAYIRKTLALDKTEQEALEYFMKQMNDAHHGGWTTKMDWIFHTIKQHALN
# Sequence of PI3Kδ (O00329 whole entry): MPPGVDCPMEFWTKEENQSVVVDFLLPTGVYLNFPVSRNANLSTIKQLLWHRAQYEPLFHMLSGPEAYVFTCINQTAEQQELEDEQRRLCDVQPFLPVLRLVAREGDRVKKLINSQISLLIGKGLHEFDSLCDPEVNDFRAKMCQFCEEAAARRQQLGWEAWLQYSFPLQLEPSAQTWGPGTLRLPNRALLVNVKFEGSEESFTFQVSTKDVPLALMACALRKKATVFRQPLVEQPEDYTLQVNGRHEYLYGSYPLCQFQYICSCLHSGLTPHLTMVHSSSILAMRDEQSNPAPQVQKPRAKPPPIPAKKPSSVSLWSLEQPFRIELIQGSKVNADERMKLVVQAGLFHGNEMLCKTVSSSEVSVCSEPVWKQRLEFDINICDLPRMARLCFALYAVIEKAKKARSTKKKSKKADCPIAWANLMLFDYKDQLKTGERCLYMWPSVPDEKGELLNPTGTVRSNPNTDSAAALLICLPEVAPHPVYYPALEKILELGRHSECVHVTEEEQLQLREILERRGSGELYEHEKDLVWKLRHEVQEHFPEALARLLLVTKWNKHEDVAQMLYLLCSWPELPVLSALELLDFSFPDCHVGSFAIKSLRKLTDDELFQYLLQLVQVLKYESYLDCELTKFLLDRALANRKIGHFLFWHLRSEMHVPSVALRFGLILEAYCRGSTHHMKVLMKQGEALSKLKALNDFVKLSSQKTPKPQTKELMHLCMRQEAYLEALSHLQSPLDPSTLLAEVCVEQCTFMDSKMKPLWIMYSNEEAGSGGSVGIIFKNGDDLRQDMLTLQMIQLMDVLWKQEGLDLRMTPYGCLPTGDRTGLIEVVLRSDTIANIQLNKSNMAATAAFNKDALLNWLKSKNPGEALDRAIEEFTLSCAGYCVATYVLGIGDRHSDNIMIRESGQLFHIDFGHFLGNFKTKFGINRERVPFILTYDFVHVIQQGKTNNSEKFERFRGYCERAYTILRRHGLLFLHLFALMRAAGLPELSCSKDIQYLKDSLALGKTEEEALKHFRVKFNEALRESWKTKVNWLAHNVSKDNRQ
# Sequence of PI3Kδ (P27986 whole entry partner): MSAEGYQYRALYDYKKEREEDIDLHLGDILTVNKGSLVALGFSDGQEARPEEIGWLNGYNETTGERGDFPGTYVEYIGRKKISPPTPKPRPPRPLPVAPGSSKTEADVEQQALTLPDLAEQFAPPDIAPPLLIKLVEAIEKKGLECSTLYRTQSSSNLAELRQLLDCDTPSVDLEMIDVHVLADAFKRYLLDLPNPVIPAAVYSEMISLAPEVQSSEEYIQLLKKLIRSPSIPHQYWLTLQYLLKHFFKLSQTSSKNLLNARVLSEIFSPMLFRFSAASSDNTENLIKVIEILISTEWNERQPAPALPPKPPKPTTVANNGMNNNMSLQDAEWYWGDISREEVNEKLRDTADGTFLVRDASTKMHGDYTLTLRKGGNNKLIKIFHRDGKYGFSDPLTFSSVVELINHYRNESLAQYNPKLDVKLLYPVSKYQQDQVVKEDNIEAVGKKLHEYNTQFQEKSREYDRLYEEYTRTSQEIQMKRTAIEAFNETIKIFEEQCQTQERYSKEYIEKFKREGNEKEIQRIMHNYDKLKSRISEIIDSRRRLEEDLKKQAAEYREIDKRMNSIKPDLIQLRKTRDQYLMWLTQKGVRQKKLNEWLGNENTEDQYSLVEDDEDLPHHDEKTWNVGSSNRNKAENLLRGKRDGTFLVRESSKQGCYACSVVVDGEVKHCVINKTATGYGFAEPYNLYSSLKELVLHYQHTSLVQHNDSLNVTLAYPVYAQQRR
Structure (SMILES),inhibition of pAkt (S473) in Tconvs (Tconvs (CD4+Foxp3-) [1]),inhibition of pAkt (S473) in Tregs (Tregs (CD4+Foxp3+) [2]),inhibition of proliferation of Tregs (Tregs (CD4+Foxp3+) [3]),IC50 (PI3Kα),IC50 (PI3Kγ),IC50 (PI3Kδ),inhibition of proliferation of Tconvs (Tconvs (CD4+Foxp3-) [4]),"CD4 and CD8 cells in tumor (per 10^6 of CD45+CD3+) (Tregs (CD4+Foxp3+) [5]; 10 mg/kg, continuous treatment)",CD4 and CD8 cells under continuous treatment (Tregs (CD4+Foxp3+) [5]; day 26 vs day 12 baseline and vehicle)
Cc1nc(NC(=O)N2CCC[C@H]2C(N)=O)sc1-c1csc(C(C)(C)C)n1 [A66],No remarkable inhibition,No remarkable inhibition,,,,,,,
Cc1cc(C(C)Nc2ccccc2)c2nc(N3CCOCC3)cc(=O)n2c1 (stereo not drawn) [TGX-221],No remarkable inhibition,No remarkable inhibition,no inhibition,5 µM,> 10 µM,0.1 µM,no inhibition,,
CC[C@H](Nc1ncnc2[nH]cnc12)c1nc2cccc(F)c2c(=O)n1-c1ccccc1 [CAL-101],no effect,,,,,,,no effect,no effect
